Test results: US20260007133A1, “HERBICIDAL COMPOSITION COMPRISING AZINE COMPOUNDS” (BASF SE, priority 2022, published 2026)

Tests used:
Format in all cases: in vivo
Geranium pusillum = test: Greenhouse post-emergence (POST) herbicidal test on GERPU
Protocol: (§1) The culture containers used were plastic pots containing loamy sand with approximately 3.0% of humus as substrate. The seeds of the test plants were sown separately for each species.
(§2) For the post-emergence treatment, the test plants were grown to a plant height of from 3 to 15 cm, depending on the plant habit, and only then treated with the active compounds which had been suspended or emulsified in water. To this end, the test plants were either sown directly, and grown in the same containers, or they were first grown separately as seedlings and transplanted into the test containers a few days prior to treatment.
(§3) Depending on the species, the plants were kept at 10-25° C. and 20-35° C., respectively.
(§4) The test period extended over 2 to 4 weeks. During this time, the plants were tended and their response to the individual treatments was evaluated.
(§5) Evaluation was carried out using a scale from 0 to 100. 100 means no emergence of the plants, or complete destruction of at least the above-ground parts, and 0 means no damage or normal course of growth. A good herbicidal activity is given at values of at least 70, and very good herbicidal activity is given at values of at least 85.
(§6) If not stated differently, the respective components A and B, and if appropriate, C were formulated as a 5% by weight strength emulsion concentrate and, with addition of the amount of solvent system, introduced into the spray liquor used for applying the active compound.
(§7) As indicated application was either post emergent (POST) at the respective growth stage (GS) of the weed (BBCH code), or pre-emergent (PRE). […]

Echinochloa crus-galli [1] = test: Greenhouse post-emergence (POST) herbicidal test on ECHCG
Protocol: as §1, §2, §3, §4, §5, §6, §7

Euphorbia heterophylla [2] = test: Greenhouse post-emergence (POST) herbicidal test on EPHHL
Protocol: as §1, §2, §3, §4, §5, §6, §7

Commelina benghalensis = test: Greenhouse pre-emergence (PRE) herbicidal test on COMBE; conditions: Commelina benghalensis, pre-emergence, 432 h, read-out: % activity
Protocol: as §1
(§8) The containers were irrigated gently to promote germination and growth and subsequently covered with transparent plastic hoods until the plants had rooted.
as §3, §4, §5, §7

Euphorbia heterophylla [3] = test: Greenhouse pre-emergence (PRE) herbicidal test on EPHHL; conditions: Euphorbia heterophylla, pre-emergence, 432 h
Protocol: as §1, §8, §3, §4, §5, §7

Lolium multiflorum = test: Greenhouse pre-emergence (PRE) herbicidal test on LOLMU; conditions: Lolium multiflorum, pre-emergence, 432 h, read-out: % activity
Protocol: as §1, §8, §3, §4, §5, §7

Abutilon theophrasti [4] = test: Greenhouse pre-emergence (PRE) herbicidal test on ABUTH; conditions: Abutilon theophrasti, pre-emergence, 432 h
Protocol: as §1, §8, §3, §4, §5, §7

Amaranthus retroflexus = test: Greenhouse post-emergence (POST) herbicidal test on AMARE; conditions: Amaranthus retroflexus, post-emergence, 432 h
Protocol: as §1, §2, §3, §4, §5, §6, §7

Echinochloa crus-galli [5] = test: Greenhouse pre-emergence (PRE) herbicidal test on ECHCG; conditions: Echinochloa crus-galli, pre-emergence, 432 h, read-out: % activity
Protocol: as §1, §8, §3, §4, §5, §7

Digitaria sanguinalis = test: Greenhouse post-emergence (POST) herbicidal test on DIGSA; conditions: Digitaria sanguinalis, post-emergence, read-out: % activity
Protocol: as §1, §2, §3, §4, §5, §6, §7

Alopecurus myosuroides = test: Greenhouse pre-emergence (PRE) herbicidal test on ALOMY; conditions: Alopecurus myosuroides, pre-emergence, 432 h, read-out: % activity
Protocol: as §1, §8, §3, §4, §5, §7

Abutilon theophrasti [6] = test: Greenhouse post-emergence (POST) herbicidal test on ABUTH; conditions: Abutilon theophrasti, post-emergence
Protocol: as §1, §2, §3, §4, §5, §6, §7

Ambrosia artemisiifolia = test: Greenhouse pre-emergence (PRE) herbicidal test on AMBEL; conditions: Ambrosia artemisiifolia, pre-emergence, 432 h, PRE, AMBEL, Propyzamide solo 250 gai/ha, 18 DAT; read-out: % activity
Protocol: as §1, §8, §3, §4, §5, §7

[7] = Geranium pusillum, post-emergence, 432 h, read-out: % activity
[8] = Echinochloa crus-galli, post-emergence, 480 h, read-out: % activity

What does the source list for `O=C(O)COc1ccc(Cl)cc1Cl` [2,4-D]?
% activity (Geranium pusillum; GERPU POST, use rate 150 gai/ha): 70%; % activity (Echinochloa crus-galli [1]; ECHCG POST, use rate 37.5 gai/ha): 20%; % activity (Euphorbia heterophylla [2]; EPHHL POST, use rate 150 gai/ha): 65%

What does the source list for `N#Cc1cc(Br)c(O)c(Br)c1` [Bromoxynil, bromoxynil]?
pest or weed control at 30 g/ha (Commelina benghalensis): 0%; pest or weed control at 30 g/ha (Euphorbia heterophylla [3]; read-out: % activity): 0%; pest or weed control at 30 g/ha (Lolium multiflorum): 0%; pest or weed control at 120 g/ha (Lolium multiflorum): 0%; pest or weed control at 30 g/ha (Geranium pusillum; [7]): 5%; pest or weed control at 120 g/ha (Geranium pusillum; [7]): 20%; pest or weed control at 120 g/ha (Abutilon theophrasti [4]; read-out: % activity): 0%; pest or weed control at 30 g/ha (Amaranthus retroflexus; read-out: % activity): 0%; pest or weed control at 30 g/ha (Echinochloa crus-galli [1]; Echinochloa crus-galli, post-emergence, 432 h, read-out: % activity): 0%; pest or weed control at 30 g/ha (Euphorbia heterophylla [2]; Euphorbia heterophylla, post-emergence, 432 h, read-out: % activity): 70%; pest or weed control at 30 g/ha (Echinochloa crus-galli [5]): 0%; pest or weed control at 120 g/ha (Echinochloa crus-galli [5]): 0%; pest or weed control at 30 g/ha (Digitaria sanguinalis; 432 h): 0%; pest or weed control at 120 g/ha (Digitaria sanguinalis; 432 h): 15%; pest or weed control at 30 g/ha (Alopecurus myosuroides): 0%; pest or weed control at 120 g/ha (Alopecurus myosuroides): 0%

`CP(=O)(O)CCC(N)C(=O)O` (stereo not shown) [Glufosinate-Ammonium, glufosinate-ammonium] was tested. Which inhibition at 75 g/ha (Geranium pusillum; Geranium pusillum, post-emergence, 480 h, read-out: % activity) did it give?
Its inhibition at 75 g/ha is 35%.

And the inhibition at 75 g/ha (Echinochloa crus-galli [1]; [8])?
Its inhibition at 75 g/ha is 0%.

And the inhibition at 150 g/ha (Echinochloa crus-galli [1]; [8])?
Its inhibition at 150 g/ha is 30%.

And the inhibition at 75 g/ha (Abutilon theophrasti [6]; 480 h, read-out: % activity)?
The inhibition at 75 g/ha was 30%.

And the inhibition at 150 g/ha (Euphorbia heterophylla [2]; Euphorbia heterophylla, post-emergence, 480 h, read-out: % activity)?
The inhibition at 150 g/ha was 45%.

What about the inhibition at 150 g/ha (Digitaria sanguinalis; 480 h) of the same compound?
Its inhibition at 150 g/ha is 95%.

What does the source list for `C#CC(C)(C)NC(=O)c1cc(Cl)cc(Cl)c1` [Propyzamide, propyzamide]?
pest or weed control at 250 g/ha (Ambrosia artemisiifolia): 0%; pest or weed control at 250 g/ha (Euphorbia heterophylla [3]; PRE, EPHHL, Propyzamide solo 250 gai/ha, 18 DAT, read-out: % activity): 10%; pest or weed control at 1000 g/ha (Euphorbia heterophylla [3]; PRE, EPHHL, Propyzamide solo 1000 gai/ha, 18 DAT): 15%; pest or weed control at 1000 g/ha (Geranium pusillum; Geranium pusillum, post-emergence, 432 h, POST, GERPU, Propyzamide solo 1000 gai/ha, 18 DAT): 20%; pest or weed control at 250 g/ha (Abutilon theophrasti [4]; PRE, ABUTH, Propyzamide solo 250 gai/ha, 18 DAT): 0%; pest or weed control at 1000 g/ha (Abutilon theophrasti [4]; PRE, ABUTH, Propyzamide solo 1000 gai/ha, 18 DAT): 10%; pest or weed control at 250 g/ha (Amaranthus retroflexus; POST, AMARE, Propyzamide solo 250 gai/ha, 18 DAT, read-out: % activity): 20%; pest or weed control at 1000 g/ha (Amaranthus retroflexus; POST, AMARE, Propyzamide solo 1000 gai/ha, 18 DAT): 50%; pest or weed control at 250 g/ha (Echinochloa crus-galli [1]; Echinochloa crus-galli, post-emergence, 432 h, POST, ECHCG, Propyzamide solo 250 gai/ha, 18 DAT, read-out: % activity): 0%; pest or weed control at 1000 g/ha (Echinochloa crus-galli [1]; Echinochloa crus-galli, post-emergence, 432 h, POST, ECHCG, Propyzamide solo 1000 gai/ha, 18 DAT): 30%; pest or weed control at 1000 g/ha (Abutilon theophrasti [6]; 432 h, POST, ABUTH, Propyzamide solo 1000 gai/ha, 18 DAT): 5%; pest or weed control at 250 g/ha (Euphorbia heterophylla [2]; Euphorbia heterophylla, post-emergence, 432 h, POST, EPHHL, Propyzamide solo 250 gai/ha, 18 DAT, read-out: % activity): 0%
